Assay results: paper PMC10088926, “Synthesis, DFT calculations, and anti-proliferative evaluation of pyrimidine and selenadiazolopyrimidine derivatives as dual Topoisomerase II and HSP90 inhibitors” (Journal of Enzyme Inhibition and Medicinal Chemistry, 2023)
Entries after “also recorded” stand apart in the source; their conditions may differ. Like-named read-outs stand apart in the source and are kept apart here.

Legend:
[1] = tested on: HepG-2 cells (human Hepatocellular carcinoma); assay: In vitro cytotoxicity, viability assay (MTT method), HepG-2; format: cell-based; details: HepG2, 24 h incubation, triplicate, read-out: IC50 values (mean ± SD) HepG-2
Description: (§1) All experiments were conducted in triplicate.
(§2) Scaffold I compounds were characterised by the uracil core attached to the 5,5-dimethyl cyclohexanone moiety through an NH linker and bearing an amino group at position 6. The activity of such compounds could be attributed to the larger number of hydrogen bond donors when compared to compounds with scaffold II. On the other hand, the activity of 5d with scaffold II could be attributed to the nature of the substituent at N1 of the pyrimidine ring being a hydrophobic benzyl group that could be involved in hydrophobic interaction and π-π stacking. Generally, the isosteric substitution of oxo with thioxo at position 2 of the pyrimidine ring lowered the anti-proliferative activity in both scaffolds I and II compounds.

[2] = tested on: A-549 cells (lung carcinoma); assay: In vitro cytotoxicity, viability assay (MTT method), A-549; format: cell-based; details: Homo sapiens, A549, 24 h incubation, triplicate, read-out: IC50 values (mean ± SD) A-549
Description: as §1, §2

[3] = tested on: MCF-7 cells (human breast cancer cell line); assay: In vitro cytotoxicity, viability assay (MTT method), MCF-7; format: cell-based; details: MCF7, 24 h incubation, triplicate, read-out: IC50 values (mean ± SD) MCF-7
Description: as §1, §2

[4] = tested on: MCF-7, HepG-2 and A-549 cells; assay: Anti-proliferative screening, classification over the three cell lines; format: cell-based; details: compared to methotrexate
Description: as §1, §2

Topoisomerase II = target: T1, Topoisomerase II (Homo sapiens, UniProt P11388); assay: In vitro Topoisomerase II enzyme inhibition assay (plasmid-based kit); format: biochemical
T1 construct: purchased
Description: (§3) In vitro enzyme inhibitory assay of compounds 3a and 5d was performed against Topoisomerase-II enzyme using Topoisomerase II Assay Kit (plasmid-based)[34] and HSP90 enzyme using HSP90 (C-Terminal) Inhibitor Screening Assay Kit[35]. The procedure of the used kits was done according to the manufacturer’s instructions.
Topoisomerase II inhibitors can cause DNA damage and halt the cell cycle.

HSP90 = assay: In vitro HSP90 enzyme inhibition assay (HSP90 (C-Terminal) Inhibitor Screening Assay Kit); format: biochemical; details: read-out: HSP90 IC50 (mean ± SD)
Description: as §3
As reported, cancer cell growth and proliferation are inhibited when HSP90 is inhibited.

HepG-2 cells [5] = assay: Flow cytometric analysis of cell-cycle distribution (propidium iodide); format: cell-based, human
Description: Cell-cycle analysis was performed by DNA staining with propidium iodide (PI) following the manufacturer’s protocol (Abcam, USA)[36]. HepG-2 cells were cultured following the procedure till exponential growth was reached. After removing the culture media, the cells were rinsed with phosphate buffer. Cells were then treated with 3a and suspended in 66% ethanol on the ice at 4 °C. Then, PI was added together with the RNase staining solution. Incubation was allowed for 20–30 min at 37 °C in the dark. For the preparation of flow cytometry, fixed cells were placed on ice. Podium iodide fluorescence was collected using 488 nm laser illumination.
Thus, it was studied further to determine the mechanism of its cell growth inhibition. The standard PI flow cytometry assay was used to investigate cell cycle distribution and apoptosis induction in HepG-2 cells. […] 3a halts the cell cycle of HepG-2 at the G1-S phase.

HepG-2 cells [6] = assay: Cellular apoptosis analysis (Annexin V-FITC/PI); format: cell-based, human; details: HepG-2, 14.31 μM, 24 h; untreated cells 0.58%
Description: Annexin V is a protein that has a high affinity to bind to membrane phosphatidylserine (PS) translocated from the inner cellular plasma membrane to the cell surface after apoptosis initiation following the manufacturer protocol (Biovision, USA)[37]. HepG-2 cells in exponential growth were treated with compound 3a and incubated for 24 h. Then, 1–5 × 10^5 were collected via centrifugation and suspended in 500 µL of 1X Binding Buffer, 5 µL of Annexin V-FITC, and 5 µL of propidium iodide were added and allowed to incubate in the dark for 5 min, then Annexin V-FITC binding was quantified by flow cytometry using emission signal detector at 530 nm.
Using HepG-2 cells and the Annexin FITC/PI dual-labelling technique, 3a-induced apoptosis was investigated.

caspase-3 gene = caspase-3 gene expression (RT-PCR) in HepG-2; format: cell-based, human; details: HepG-2, compared to control cells
Description: (§4) The level of Topoisomerase II, HSP90, and caspase-3 gene expression were assessed using Bio-Rad RT-PCR Kit following the manufacturer’s instructions. HepG-2 cells were exponentially grown and then treated with 3a after treatment with DNA polymerase and fluorescein. The expression of Topoisomerase II, HSP90, and caspase-3 genes was measured fluorometrically.
(§5) A caspase family is a group of cysteine proteases that activates apoptosis through receptor or mitochondrial-dependent cell death. Caspase-3 activation catalyses the cleavage of key cellular proteins, leading to both mitochondrial-dependent and non-dependent cell death. Caspase-3 is also associated with cell rupture and the formation of apoptotic bodies. The effect of 3a on caspase-3 gene expression was studied in HepG-2 cell lines. […] The gene that encodes DNA Topoisomerase II controls the topology of […] during DNA transcription. This gene is a target for anti-proliferative agents by altering enzyme activity. In the present work, the effect of 3a on the expression of the gene encoding Topoisomerase II in the supernatant of HepG-2 cell lines was studied. […] Furthermore, the HSP90 encoding gene interferes with the proper folding of specified protein targets and interferes with ATP binding.

[7] = tested on: gene encoding Topoisomerase II; assay: Topoisomerase II gene expression (RT-PCR) in HepG-2; format: cell-based, human; details: supernatant of HepG-2 cell lines, compared to control cells
Description: as §4, §5

gene encoding HSP90 = assay: HSP90 gene expression (RT-PCR) in HepG-2; format: cell-based, human; details: supernatant of HepG-2 cell lines, compared to control cells
Description: as §4, §5

[8] = In vitro cytotoxicity against normal WI-38 cell line; details: human
Description: The viability assay (MTT method)[33] was used to evaluate the cytotoxic activity of the synthesised compounds against three mammalian tumour cell lines obtained from the VACSERA Tissue Culture Unit, namely MCF-7 cells (human breast cancer cell line), HepG-2 cells (human Hepatocellular carcinoma), and A-549 cells (lung carcinoma), as well as the normal WI-38 human cell line for both compounds 3a and 5d. […] 1% Crystal violet stain: it is composed of 0.5% (w/v) crystal violet and 50% methanol, which is then diluted to volume with ddH2O and filtered through a Whatman No.1 filter paper. Dulbecco’s modified Eagle’s medium (DMEM) supplemented with 10% heat-inactivated foetal bovine serum, 1% L-glutamine, HEPES buffer, and 50 μg/mL gentamycin was used to grow the cells. All cells were cultured twice a week and kept at 37 °C in a humidified atmosphere with 5% CO2. In 100 μL of the growth medium, the cells were seeded in a 96-well plate at a cell concentration of 1 × 10^4 cells per well. After 24 h of seeding, a fresh medium containing different concentrations of the test sample was added. A multichannel pipette was used to add serial two-fold dilutions of the tested chemical compound to confluent cell monolayers dispensed into 96-well, flat-bottomed microtiter plates (Falcon, NJ, USA). The microtiter plates were incubated for 24 h at 37 °C in a humidified incubator with 5% CO2. For each concentration of the test sample, three wells were used. […] Glacial acetic acid (30%) was thoroughly mixed into all wells, and the absorbance of the plates was measured. Background absorbance detected in wells without added stain was corrected for in all results. […] Each tested compound’s cytotoxic effect on cells was calculated. To determine the number of viable cells, the optical density was measured using a microplate reader (Sunrise, TECAN, Inc, USA), and the percentage of viability was calculated as [(ODt/ODc)] × 100%, where ODt is the mean optical density of wells treated with the tested sample and ODc is the mean optical density of untreated cells. […]

T1 sequence (P11388 whole entry): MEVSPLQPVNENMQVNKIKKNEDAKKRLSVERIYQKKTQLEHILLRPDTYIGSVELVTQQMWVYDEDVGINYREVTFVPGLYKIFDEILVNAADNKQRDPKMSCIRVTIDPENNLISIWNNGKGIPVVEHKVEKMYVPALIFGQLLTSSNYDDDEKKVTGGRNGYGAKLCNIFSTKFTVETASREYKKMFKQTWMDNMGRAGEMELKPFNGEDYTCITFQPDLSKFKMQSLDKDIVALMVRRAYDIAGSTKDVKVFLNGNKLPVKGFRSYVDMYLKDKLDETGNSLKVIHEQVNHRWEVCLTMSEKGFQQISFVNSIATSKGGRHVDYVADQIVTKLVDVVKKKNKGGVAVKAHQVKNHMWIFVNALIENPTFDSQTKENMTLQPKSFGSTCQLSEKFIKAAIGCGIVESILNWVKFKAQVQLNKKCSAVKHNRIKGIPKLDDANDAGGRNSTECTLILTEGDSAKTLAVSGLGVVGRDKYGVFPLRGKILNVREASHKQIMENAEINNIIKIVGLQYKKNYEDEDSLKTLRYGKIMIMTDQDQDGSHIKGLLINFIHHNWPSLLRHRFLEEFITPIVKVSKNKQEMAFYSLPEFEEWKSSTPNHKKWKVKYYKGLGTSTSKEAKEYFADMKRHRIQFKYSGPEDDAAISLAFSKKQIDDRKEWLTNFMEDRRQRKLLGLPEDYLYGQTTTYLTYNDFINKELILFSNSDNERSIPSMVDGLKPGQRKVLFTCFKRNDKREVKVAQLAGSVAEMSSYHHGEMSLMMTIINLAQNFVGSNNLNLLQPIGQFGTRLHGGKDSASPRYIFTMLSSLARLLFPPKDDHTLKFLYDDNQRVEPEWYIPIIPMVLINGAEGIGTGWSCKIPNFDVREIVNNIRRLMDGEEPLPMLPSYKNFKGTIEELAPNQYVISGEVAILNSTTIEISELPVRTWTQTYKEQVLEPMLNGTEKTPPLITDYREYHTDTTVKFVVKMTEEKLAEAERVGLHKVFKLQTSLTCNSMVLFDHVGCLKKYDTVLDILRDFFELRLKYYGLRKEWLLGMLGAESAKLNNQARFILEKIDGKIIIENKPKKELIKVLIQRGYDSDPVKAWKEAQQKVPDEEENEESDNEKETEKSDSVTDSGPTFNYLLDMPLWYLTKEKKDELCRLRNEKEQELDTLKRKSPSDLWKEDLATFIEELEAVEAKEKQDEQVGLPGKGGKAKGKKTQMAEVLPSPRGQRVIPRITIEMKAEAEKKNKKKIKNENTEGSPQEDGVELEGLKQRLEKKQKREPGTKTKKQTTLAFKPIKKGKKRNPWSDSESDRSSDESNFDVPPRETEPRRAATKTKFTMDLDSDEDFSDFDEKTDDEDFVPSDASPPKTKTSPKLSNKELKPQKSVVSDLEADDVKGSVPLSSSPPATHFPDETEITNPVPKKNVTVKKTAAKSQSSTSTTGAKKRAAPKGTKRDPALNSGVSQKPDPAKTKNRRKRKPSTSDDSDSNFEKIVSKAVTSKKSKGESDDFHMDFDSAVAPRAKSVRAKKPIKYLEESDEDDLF

Compound | melting point [°C] | IC50 [1] [µM] | IC50 [2] [µM] | IC50 [3] [µM] | anti-proliferative activity category [4] | further results
Nc1c(N=[Se]=O)c(=O)[nH]c(=O)n1Cc1ccccc1Cl | > 300 | – | – | – | – | –
O=c1[nH]cc(F)c(=O)[nH]1 [5-Fluorouracil, reference compound] | – | 7.37 ± 0.29 | 12.3 ± 0.53 | 10.1 ± 0.44 | – | –
CC1(C)CC(=O)C=C(Nc2c(N)[nH]c(=O)[nH]c2=O)C1 [Compound 3a, 6-Amino-5-((5,5-dimethyl-3-oxocyclohex-1-en-1-yl)amino)pyrimidine-2,4(1H,3H)-dione] | – | 14.3 ± 0.83 | 30.7 ± 0.76 | 27.1 ± 1.91 | moderate to high | IC50 (Topoisomerase II; in vitro enzyme assay, read-out: Topoisomerase II IC50 (mean ± SD)): 4.48 ± 0.65 µM; IC50 (HSP90): 1.78 ± 0.11 µM; phase at which the cell cycle is halted (HepG-2 cells [5]; HepG-2): G1-S phase; %DIP G1 (cells in the G1-S phase) (HepG-2 cells [5]; HepG-2, 14.31 μM, untreated cells 43.82% (±2.61)): 51.46%; total apoptotic cells (HepG-2 cells [6]): 37.93%; caspase-3 gene expression (caspase-3 gene): upregulating; also recorded: increased; also recorded: upregulated; Topoisomerase II gene expression [7]: downregulating; also recorded: downregulate; HSP90 gene expression (gene encoding HSP90): downregulating; also recorded: downregulated; IC50 at 24 h [8]: 80.8 ± 3.04 µM
CC1(C)CC(=O)C=C(Nc2c(N)n(Cc3ccccc3Cl)c(=O)[nH]c2=O)C1 [Compound 3b, 6-Amino-1-(2-chlorobenzyl)-5-((5,5-dimethyl-3-oxocyclohex-1-en-1-yl)amino)pyrimidine-2,4(1H,3H)-dione] | 294 to 296 | 40.4 ± 1.25 | 36.4 ± 1.09 | 46.1 ± 1.63 | low to moderate | –
Cn1c(N)c(NC2=CC(=O)CC(C)(C)C2)c(=O)[nH]c1=S [Compound 3c, 6-Amino-5-((5,5-dimethyl-3-oxocyclohex-1-en-1-yl)amino)-1-methyl-2-thioxo-2,3-dihydropyrimidin-4(1H)-one] | > 300 | > 100 | > 100 | > 100 | low | –
CCn1c(N)c(NC2=CC(=O)CC(C)(C)C2)c(=O)[nH]c1=O [Compound 3d, 6-Amino-5-((5,5-dimethyl-3-oxocyclohex-1-en-1-yl)amino)-1-ethylpyrimidine-2,4(1H,3H)-dione] | > 300 | 21.6 ± 0.76 | 33.3 ± 0.99 | 31.4 ± 1.39 | moderate to high | –
CC1(C)CC(=O)C=C(Nc2c(N)n(Cc3ccccc3)c(=O)[nH]c2=O)C1 [Compound 3e, 6-Amino-1-benzyl-5-((5,5-dimethyl-3-oxocyclohex-1-en-1-yl)amino)pyrimidine-2,4(1H,3H)-dione] | 292 to 294 | 47.6 ± 1.39 | 44 ± 1.28 | > 100 | low to moderate | –
Cn1c(N)c(NC2=CC(=O)CC(C)(C)C2)c(=O)[nH]c1=O [Compound 3f, 6-Amino-5-((5,5-dimethyl-3-oxocyclohex-1-en-1-yl)amino)-1-methylpyrimidine-2,4(1H,3H)-dione] | > 300 | > 100 | > 100 | > 100 | low | –
O=c1[nH]c(=O)c2n[se]nc2[nH]1 [Compound 5a, [1,2, 5]selenadiazolo[3,4-d]pyrimidine-5,7(4H,6H)-dione] | > 300 | 51.7 ± 2.09 | 58 ± 2.13 | 51.9 ± 1.48 | low to moderate | –
Cn1c(=S)[nH]c(=O)c2n[se]nc21 [Compound 5b, 4-Methyl-5-thioxo-5,6-dihydro-[1,2,5]selenadiazolo[3,4-d]pyrimidin-7(4H)-one] | > 300 | 57.9 ± 2.43 | 68.7 ± 3.86 | 98.1 ± 3.45 | low to moderate | –
CCn1c(=O)[nH]c(=O)c2n[se]nc21 [Compound 5c, 4-Ethyl-[1,2, 5]selenadiazolo[3,4-d]pyrimidine-5,7(4H,6H)-dione] | > 300 | 33.4 ± 1.09 | 42.5 ± 1.19 | 39.7 ± 1.32 | – | –
O=c1[nH]c(=O)n(Cc2ccccc2)c2n[se]nc12 [Compound 5d, 4-Benzyl-[1,2, 5]selenadiazolo[3,4-d]pyrimidine-5,7(4H,6H)-dione] | 260 to 261 | 17.7 ± 0.81 | 26.8 ± 0.89 | 29.3 ± 0.86 | moderate to high | IC50 (Topoisomerase II): 8.39 ± 1.07 µM; IC50 (HSP90): 7.69 ± 0.46 µM; IC50 at 24 h [8]: 54.6 ± 2.05 µM
Cn1c(=O)[nH]c(=O)c2n[se]nc21 [Compound 5e, 4-Methyl-[1,2, 5]selenadiazolo[3,4-d]pyrimidine-5,7(4H,6H)-dione] | > 300 | > 100 | > 100 | > 100 | low | –
Cn1c(=O)c2n[se]nc2n(C)c1=O [Compound 7, 4,6-Dimethyl-[1,2, 5]selenadiazolo[3,4-d]pyrimidine-5,7(4H,6H)-dione] | 278 to 280 | > 100 | > 100 | > 100 | low | –
COc1cccc2c1C(=O)c1c(O)c3c(c(O)c1C2=O)C[C@@](O)(C(=O)CO)C[C@@H]3O[C@H]1C[C@H](N)[C@H](O)[C@H](C)O1 [Doxorubicin, reference compound] | – | – | – | – | – | IC50 at 24 h [8]: 19.6 ± 0.74 µM
CN(Cc1cnc2nc(N)nc(N)c2n1)c1ccc(C(=O)N[C@@H](CCC(=O)O)C(=O)O)cc1 [Methotrexate, reference compound] | – | 21.9 ± 1.08 | 34.5 ± 2.19 | 29.5 ± 2.19 | – | –
